ChEMBL document CHEMBL1201862, “PubChem BioAssay data set” (2004)
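1) Cells in 96-well plates. 2) Compound, 48 h, 5 concentrations. 3) Linear interpolation between surrounding doses. 4) Unreached endpoint = highest concentration. Here, GI50 denotes the concentration required for 50% inhibition of growth.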 Activity calls are given as the source filed them. No stated cut-off is given here; in the data, active = GI50 up to about 1.1 µM and inactive = higher.

Key:
Assay in all cases: DTP human tumour cell line panel, 48 h
MDA-MB-435 = tested on: MDA-MB-435
PC-3 = tested on: PC-3
MDA-MB-231 = tested on: MDA-MB-231
Hs-578T = tested on: Hs-578T
SNB-78 = tested on: SNB-78
DMS-273 = tested on: DMS-273
DLD-1 = tested on: DLD-1
DMS-114 = tested on: DMS-114

Row | SMILES | GI50 (MDA-MB-435) | GI50 (PC-3) | GI50 (MDA-MB-231) | GI50 (Hs-578T) | GI50 (SNB-78) | GI50 (DMS-273) | GI50 (DLD-1) | GI50 (DMS-114)
1 | CC(C)CC(NC(=O)C(O)C(N)Cc1ccccc1)C(=O)O (stereo unspecified) | > 100 µM (inactive) | > 100 µM (inactive) | > 100 µM (inactive) | > 100 µM (inactive) |  |  |  | 
2 | [N-]=[N+]=NCc1nc(N)c2c3c(sc2n1)CCCC3 | 4.25 µM (inactive) | 2.04 µM (inactive) | 6.17 µM (inactive) | 2.72 µM (inactive) |  |  |  | 
3 | Cc1oc(N)c(S(=O)(=O)c2cc3ccccc3[n+]([O-])c2N)c1C | > 100 µM (inactive) | > 100 µM (inactive) | > 100 µM (inactive) | > 100 µM (inactive) |  |  |  | 
4 | Fc1ccccc1C1SCc2nc3cc4ccccc4cc3n21 (stereo unspecified) | > 100 µM (inactive) | 78.3 µM (inactive) | 13.2 µM (inactive) | 26.5 µM (inactive) |  |  |  | 
5 | O=C1NC(=O)/C(=C/c2ccc(S(=O)(=O)N/N=C/c3ccccc3)cc2)N1 | > 100 µM (inactive) | > 100 µM (inactive) | > 100 µM (inactive) | > 100 µM (inactive) |  |  |  | 
6 | CC1CN=C(N(C(=O)Nc2ccc(Cl)c(Cl)c2)c2ccccc2)S1 (stereo unspecified) |  | 37.8 µM (inactive) | > 100 µM (inactive) | > 100 µM (inactive) |  |  |  | 
7 | CC1(C)CC23C4COC(=O)C2CCC1C3CC4=O (stereo unspecified) |  |  |  |  | 15 µM (inactive) | 19.9 µM (inactive) | 11.2 µM (inactive) | 
8 | COC(=O)/C(C#N)=C1\CCC(O)N1C (stereo unspecified) |  |  |  |  | > 100 µM (inactive) |  | > 100 µM (inactive) | > 100 µM (inactive)
9 | CC(=O)NC1=C(NCC(C)(C)C)C(=O)c2ccccc2C1=O |  |  |  |  | 86.1 µM (inactive) | > 100 µM (inactive) | 99.5 µM (inactive) | 
10 | N=S(c1ccccc1[N+](=O)[O-])c1ccccc1[N+](=O)[O-] |  |  |  |  | 2.52 µM (inactive) | 3.05 µM (inactive) |  | 
11 | Cn1cc(C(=O)c2nccc3c2cnc2ccccc23)ccc1=O | > 100 µM (inactive) | > 100 µM (inactive) | > 100 µM (inactive) | > 100 µM (inactive) |  |  |  | 
12 | CCCCCCCCCCCCCCCCOCC(O)CO (stereo unspecified) | 17.4 µM (inactive) | 16.5 µM (inactive) | 18.5 µM (inactive) | 18.4 µM (inactive) |  |  |  | 
13 | Cc1ccc(C(=O)N/N=C(\N=N\c2cccc([N+](=O)[O-])c2)c2ccc(N(CCC#N)CCC#N)cc2C)cc1 | 18.1 µM (inactive) | 23.8 µM (inactive) | 30.5 µM (inactive) | 23.4 µM (inactive) |  |  |  | 
14 | Cc1ccc(S(=O)(=O)N/N=C2/C3CCC(C3)C2c2ccccc2)cc1 (stereo unspecified) | > 100 µM (inactive) | > 100 µM (inactive) |  | > 100 µM (inactive) |  |  |  | 
15 | Cc1c(Cl)nc(Cl)nc1Cl | 2.19 µM (inactive) | 2 µM (inactive) | 1.43 µM (inactive) | 3.12 µM (inactive) |  |  |  | 
16 | O=C(Cn1cc(Br)c(=O)[nH]c1=O)c1ccc(-c2ccccc2)cc1 | > 16.8 µM (inactive) | > 17.8 µM (inactive) | 12.2 µM (inactive) | 29.6 µM (inactive) |  |  |  | 
17 | C=C[C@H]1CN2CCc3c([nH]c4c([C@@H]5CCCN5C)c(O)ccc34)[C@@H]2C[C@@H]1C[C@H]1c2[nH]c3ccccc3c2CCN1C | 1.48 µM (inactive) | 1.41 µM (inactive) | 1.63 µM (inactive) | 1.52 µM (inactive) |  |  |  | 
18 | CN1COCc2c1ccc1cc3ccc4c(c3nc21)COCN4S(C)(=O)=O | > 100 µM (inactive) | > 100 µM (inactive) | > 100 µM (inactive) | 95.9 µM (inactive) |  |  |  | 
19 | Cn1c(=O)c2c(nc(N/N=C3/SCC(=O)N3Cc3ccccc3)n2C)n(C)c1=O | > 100 µM (inactive) | 39.2 µM (inactive) | 60.7 µM (inactive) | 60.8 µM (inactive) |  |  |  | 
20 | O=c1cccc2n1C[C@H]1CNC[C@H]2C1 | > 100 µM (inactive) | > 100 µM (inactive) | > 100 µM (inactive) | > 100 µM (inactive) |  |  |  | 
21 | O=C(Cc1csc2[n+]1C(=O)/C(=C/c1ccc(Cl)cc1)S2)Nc1ccccc1 | 25.3 µM (inactive) | 16.4 µM (inactive) | 14.8 µM (inactive) | 27.7 µM (inactive) |  |  |  | 
22 | S=C(NCc1ccccn1)N/N=C/c1ccccn1 | 0.207 µM (active) | < 0.01 µM (active) | < 0.01 µM (active) | 1.14 µM (inactive) |  |  |  | 
23 | Cc1c(CNc2ccc(C(=O)NC(CCCNC(=O)c3ccccc3C(=O)O)C(=O)O)cc2)cnc2nc(N)nc(N)c12 (stereo unspecified) | 0.000596 µM (active) | 2 µM (inactive) | 3.23 µM (inactive) | 0.1 µM (active) |  |  |  | 
24 | CCCCN=C(OC1C=CCCC1)SC (stereo unspecified) | > 100 µM (inactive) | > 100 µM (inactive) | > 100 µM (inactive) |  |  |  |  | 
25 | CC(C)C1=CC23CCC4C(C)(C(=O)O)CCCC4(C)C2CC1C1C(=O)N(c2ccc(Cc4ccc(N5C(=O)C6C7CC8C9(C)CCCC(C)(C(=O)O)C9CCC8(C=C7C(C)C)C6C5=O)cc4)cc2)C(=O)C13 (stereo unspecified) | 3.55 µM (inactive) | 3.78 µM (inactive) | 15.7 µM (inactive) | 10.7 µM (inactive) |  |  |  | 
26 | CCOP(=O)(CCCC(O)CNc1nc(N)nc(Cl)c1/N=N/c1ccc(Cl)cc1)OCC (stereo unspecified) | 5.85 µM (inactive) | 4.86 µM (inactive) | 2.59 µM (inactive) | 4.85 µM (inactive) |  |  |  | 
